Results: patent publication US8163909B2, “Substituted hydroxyethyl amine compounds as beta-secretase modulators and methods of use” (Amgen Inc., priority 2007, dated 2012)

Assays:
[1] = target: Beta Secretase enzyme (BACE) (Homo sapiens, UniProt P56817); assay: In vitro enzymatic BACE FRET (fluorescence resonance energy transfer) assay; type: biochemical; settings: BACE enzyme assay; read-out: BACE1 FRET assay (IC50);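 also: fluorescence read after 1 h with 50 nM quenched peptide substrate spanning the BACE cleavage site, in pH 4.2 acetate buffer containing 10% DMSO and nonionic detergent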
[2] = tested on: Aβ40 in conditioned medium of cells stably expressing Amyloid Precursor Protein (APP); assay: In vitro BACE cell-based assay (Aβ40 in conditioned medium, sandwich ELISA); settings: Homo sapiens, HEK293, HEK cells, cell-based assay; read-out: HEK cell assay (IC50);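 also: compounds added as a dilution series, secreted peptide quantified by europium time-resolved fluorescence readout, potency fitted from percent of control versus compound concentration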

Chain of Beta Secretase enzyme (BACE) (P56817 46-501): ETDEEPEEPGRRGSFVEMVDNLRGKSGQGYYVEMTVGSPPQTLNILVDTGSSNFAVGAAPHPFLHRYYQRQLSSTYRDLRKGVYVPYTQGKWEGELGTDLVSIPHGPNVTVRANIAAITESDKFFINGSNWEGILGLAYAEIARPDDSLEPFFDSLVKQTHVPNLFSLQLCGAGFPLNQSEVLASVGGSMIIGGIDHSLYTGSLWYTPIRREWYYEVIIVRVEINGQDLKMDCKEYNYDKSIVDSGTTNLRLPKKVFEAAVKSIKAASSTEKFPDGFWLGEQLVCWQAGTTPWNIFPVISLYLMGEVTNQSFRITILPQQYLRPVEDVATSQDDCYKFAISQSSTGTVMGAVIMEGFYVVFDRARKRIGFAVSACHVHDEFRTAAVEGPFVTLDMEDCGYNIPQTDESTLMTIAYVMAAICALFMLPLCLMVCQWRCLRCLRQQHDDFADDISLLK

IC50 [1] | IC50 [2] | Structure (SMILES)
25.5 nM | 67.8 nM | COCC(=O)N[C@@H](Cc1ccc2c(c1)OCO2)[C@H](O)CN[C@H]1CC2(CCC2)Oc2c1cc(CC(C)(C)C)nc2Cl [compound 127, N-((1S,2R)-1-(1,3-benzodioxol-5-ylmethyl)-3-(((4′S)-8′-chloro-6′-(2,2-dimethylpropyl)-3′,4′-dihydrospiro[cyclobutane-1,2′-pyrano[2,3-c]pyridin]-4′-yl)amino)-2-hydroxypropyl)-2-(methyloxy)acetamide]
33.2 nM | 16 nM | CC(=O)N[C@@H](Cc1ccccc1)[C@H](O)CN[C@H]1CC2(CCC2)Oc2c1cc(CC(C)(C)C)nc2N1CCC1 [compound 128]
119 nM | 30.9 nM | COCC(=O)N[C@@H](Cc1ccc2c(c1)OCO2)[C@H](O)CN[C@H]1CC2(CCC2)Oc2c1cc(CC(C)(C)C)nc2N [compound 129]
54.1 nM | 55 nM | COCC(=O)N[C@@H](Cc1ccc2c(c1)OCO2)[C@H](O)CN[C@H]1CC2(CCC2)Oc2c1cc(CC(C)(C)C)nc2N1CCCC1 [compound 130]
26.8 nM | 376 nM | CO[C@H](C)C(=O)N[C@@H](Cc1ccc2c(c1)OCO2)[C@H](O)CN[C@H]1CC2(CCC2)Oc2c1cc(CC(C)(C)C)nc2Cl [compound 131]
25.2 nM | 66 nM | CC(=O)NC(Cc1ccc2c(c1)OCO2)C(O)CNC1CC2(CC(C)C2)Oc2ncc(CC(C)C)cc21 [compound 132, N-((1S,2R)-1-(1,3-benzodioxol-5-ylmethyl)-2-hydroxy-3-(((1s,3R,4′S)-3-methyl-6′-(2-methylpropyl)-3′,4′-dihydrospiro[cyclobutane-1,2′-pyrano[2,3-b]pyridin]-4′-yl)amino)propyl)acetamide]
39.8 nM | 143 nM | COCC(=O)NC(Cc1ccc2c(c1)OCO2)C(O)CNC1CC2(CC(C)C2)Oc2ncc(CC(C)C)cc21 [compound 133, N-((1S,2R)-1-(1,3-benzodioxol-5-ylmethyl)-2-hydroxy-3-(((1s,3R,4′S)-3-methyl-6′-(2-methylpropyl)-3′,4′-dihydrospiro[cyclobutane-1,2′-pyrano[2,3-b]pyridin]-4′-yl)amino)propyl)-2-(methyloxy)acetamide]
27.2 nM | 192 nM | COC(C)C(=O)NC(Cc1ccc2c(c1)OCO2)C(O)CNC1CC2(CC(C)C2)Oc2ncc(CC(C)C)cc21 [compound 134, (2R)—N-((1S,2R)-1-(1,3-benzodioxol-5-ylmethyl)-2-hydroxy-3-(((1s,3R,4′S)-3-methyl-6′-(2-methylpropyl)-3′,4′-dihydrospiro[cyclobutane-1,2′-pyrano[2,3-b]pyridin]-4′-yl)amino)propyl)-2-(methyloxy)propanamide]
41.1 nM | 16.3 nM | CNc1nc(CC(C)(C)C)cc2c1OC1(CCC1)C[C@@H]2NC[C@@H](O)[C@H](Cc1ccc2c(c1)OCO2)NC(=O)[C@@H](C)OC [compound 136]
82 nM | 57.5 nM | CNc1nc(CC(C)(C)C)cc2c1OC1(CCC1)C[C@@H]2NC[C@@H](O)[C@H](Cc1ccc(F)cc1)NC(=O)[C@@H](C)OC [compound 137]
178 nM | 162 nM | CNc1nc(CC(C)(C)C)cc2c1OC1(CCC1)C[C@@H]2N(C)C[C@@H](O)[C@H](Cc1ccc(F)cc1)NC(=O)[C@@H](C)OC [compound 138]
42 nM | 8.99 nM | CNc1nc(CC(C)(C)C)cc2c1OC1(CCC1)C[C@@H]2NC[C@@H](O)[C@H](Cc1cccc(F)c1)NC(=O)[C@@H](C)OC [compound 139]
7.75 nM | 115 nM | COCC(=O)N[C@@H](Cc1cccc(F)c1)[C@H](O)CN[C@H]1CC2(CCC2)Oc2c1cc(CC(C)(C)C)nc2OCC(F)(F)F [compound 140, N-((1S,2R)-3-(((4′S)-6′-(2,2-dimethylpropyl)-8′-((2,2,2-trifluoroethyl)oxy)-3′,4′-dihydrospiro[cyclobutane-1,2′-pyrano[2,3-c]pyridin]-4′-yl)amino)-1-((3-fluorophenyl)methyl)-2-hydroxypropyl)-2-(methyloxy)acetamide]
319 nM | 2840 nM | CO[C@H](C)C(=O)N[C@@H](Cc1ccc(F)cc1)[C@H](O)CN[C@H]1CC2(CCC2)Oc2c1cc(CC(C)(C)C)nc2NCC(F)(F)F [compound 141, (2R)-N-((1S,2R)-3-(((4′S)-6′-(2,2-dimethylpropyl)-8′-((2,2,2-trifluoroethyl)amino)-3′,4′-dihydrospiro[cyclobutane-1,2′-pyrano[2,3-c]pyridin]-4′-yl)amino)-1-((4-fluorophenyl)methyl)-2-hydroxypropyl)-2-(methyloxy)propanamide]
350 nM | 1950 nM | COCC(=O)N[C@@H](Cc1ccc2c(c1)OCO2)[C@H](O)CN[C@H]1CC2(CCC2)Oc2c1cc(CC(C)(C)C)nc2NCC(F)(F)F [compound 142]
19.5 nM | 314 nM | COCC(=O)N[C@@H](Cc1cccc(F)c1)[C@H](O)CN[C@H]1CC2(CCC2)Oc2c1cc(CC(C)(C)C)nc2NCC(F)(F)F [compound 143]
94.4 nM | 634 nM | CC(=O)N[C@@H](Cc1ccc(F)cc1)[C@H](O)CN[C@H]1CC2(CCC2)Oc2c1cc(CC(C)(C)C)nc2NCC(F)(F)F [compound 144]
298 nM | 777 nM | CNc1nc(CC(C)(C)C)cc2c1OC1(CCC1)C[C@@H]2N(C)C[C@@H](O)[C@H](Cc1ccc2c(c1)OCO2)NC(=O)[C@@H](C)OC [compound 145]

IC50 [1] | IC50 [2] | Structure (SMILES)
421 nM | 1250 nM | CC(=O)N[C@@H](Cc1ccc(F)cc1)[C@H](O)CN[C@H]1CC2(CCC2)Oc2ncc(OC(C)(F)F)cc21 [compound 146]
49.5 nM | 23.2 nM | CNc1nc(CC(C)(C)C)cc2c1OC1(CCC1)C[C@@H]2NC[C@@H](O)[C@H](Cc1ccc(F)cc1)NC(=O)COC [compound 147]
38.7 nM | 6.54 nM | CNc1nc(CC(C)(C)C)cc2c1OC1(CCC1)C[C@@H]2NC[C@@H](O)[C@H](Cc1cccc(F)c1)NC(=O)COC [compound 148]
47.9 nM | 27.2 nM | COCCNc1nc(CC(C)(C)C)cc2c1OC1(CCC1)C[C@@H]2NC[C@@H](O)[C@H](Cc1ccc(F)cc1)NC(C)=O [compound 149, N-((1S,2R)-3-(((4′S)-6′-(2,2-dimethylpropyl)-8′-((2-(methyloxy)ethyl)amino)-3′,4-dihydrospiro[cyclobutane-1,2′-pyrano[2,3-c]pyridin]-4′-yl)amino)-1-((4-fluorophenyl)methyl)-2-hydroxypropyl)acetamide]
47.9 nM | 22.6 nM | COCCNc1nc(CC(C)(C)C)cc2c1OC1(CCC1)C[C@@H]2NC[C@@H](O)[C@H](Cc1ccc(F)cc1)NC(=O)COC [compound 150]
20.5 nM | 84.1 nM | CC(=O)N[C@@H](Cc1cccc(F)c1)[C@H](O)CN[C@H]1CC2(CCC2)Oc2ncc(OC(C)(F)F)cc21 [compound 151, N-((1S,2R)-3-(((4′S)-6′-((1,1-difluoroethyl)oxy)-3′,4′-dihydrospiro[cyclobutane-1,2′-pyrano[2,3-b]pyridin]-4′-yl)amino)-1-((3-fluorophenyl)methyl)-2-hydroxypropyl)acetamide]
10.6 nM | 33.6 nM | CC(F)(F)Oc1cnc2c(c1)[C@@H](NC[C@@H](O)[C@H](Cc1cccc(F)c1)NC(=O)[C@@H]1CCC(=O)O1)CC1(CCC1)O2 [compound 152]
200 nM | 153 nM | COCC(=O)N[C@@H](Cc1ccc(F)cc1)[C@H](O)CN[C@H]1CC2(CCC2)Oc2c1cc(CC(C)(C)C)nc2C [compound 153]
13.2 nM | 28 nM | COC(C)C(=O)NC(Cc1ccc(F)cc1)C(O)CNC1CC2(CCC2)Oc2ncc(CC(C)(C)C)cc21 [compound 154, (2R)—N-((1S,2R)-3-(((4′S)-6′-(2,2-dimethylpropyl)-3′,4-dihydrospiro[cyclobutane-1,2′-pyrano[2,3-b]pyridin]-4′-yl)amino)-1-((4-fluorophenyl)methyl)-2-hydroxypropyl)-2-(methyloxy)propanamide]
40.1 nM | 76 nM | CO[C@@H](C)C(=O)N[C@@H](Cc1ccc(F)cc1)[C@H](O)CN[C@H]1CC2(CCC2)Oc2ncc(CC(C)(C)C)cc21 [compound 155]
27.7 nM | 45.3 nM | CC(O)C(=O)N[C@@H](Cc1ccc(F)cc1)[C@H](O)CN[C@H]1CC2(CCC2)Oc2ncc(CC(C)(C)C)cc21 (stereo partly shown) [compound 156]
50.4 nM | 241 nM | CC(C)(C)Cc1cnc2c(c1)[C@@H](NC[C@@H](O)[C@H](Cc1ccc(F)cc1)NC(=O)C(F)C(F)(F)F)CC1(CCC1)O2 (stereo partly shown) [compound 158]
19.2 nM | 36.3 nM | CC(=O)N[C@@H](Cc1ccc(F)cc1)[C@H](O)CN[C@H]1CC2(CCC2)Oc2ncc(CC(C)(C)C(F)F)cc21 [compound 159]
8.84 nM | 39.1 nM | COCC(=O)N[C@@H](Cc1ccc(F)cc1)[C@H](O)CN[C@H]1CC2(CCC2)Oc2ncc(CC(C)(C)C(F)F)cc21 [compound 160]
11.2 nM | 17.4 nM | CC(=O)N[C@@H](Cc1ccc(F)cc1)[C@H](O)CN[C@H]1CC2(CCC2)Oc2ccc(CC(C)(C)C#N)cc21 [compound 161]
44.6 nM | 31.1 nM | COCC(=O)N[C@@H](Cc1ccc(F)cc1)[C@H](O)CN[C@H]1CC2(CCC2)Oc2ccc(CC(C)(C)C#N)cc21 [compound 162]
26.9 nM | 35.9 nM | COCC(=O)N[C@@H](Cc1ccnc(C(F)(F)F)c1)[C@H](O)CN[C@H]1CC2(CCC2)Oc2ncc(CC(C)(C)C)cc21 [compound 163]
62.3 nM | 20.5 nM | CC(=O)N[C@@H](Cc1ccc(F)cc1)[C@H](O)CN[C@H]1CC2(CCC2)Cc2ncc(CC(C)(C)C)cc21 [compound 164]

Structure (SMILES) | IC50 [1] | IC50 [2]
CO[C@H](C)C(=O)N[C@@H](Cc1ccc2c(c1)OCO2)[C@H](O)CN[C@H]1CC2(CCC2)Oc2c1cc(CC(C)(C)C)nc2N(C)C [compound 135] | 64.7 nM | 175 nM
C[C@@H](O)C(=O)N[C@@H](Cc1ccc(F)cc1)[C@H](O)CN[C@H]1CC2(CCC2)Oc2ncc(CC(C)(C)C)cc21 [compound 157] | 15.1 nM | 21.7 nM
